For data set [1] the following is noted: cited from earlier work.
The conditions of data set [2]: cited from earlier work. This is another data set of the same source.
For data set [3] the following is noted: crystalline form, cited from earlier work.
For the next data set, the system named is function of the retina. More on the design: species or system C57 BL/6 mice. Particulars: mouse, in vivo. Here is the method:
5) After C57 BL/6 mice (Orient Bio, Korea) were acclimatized to be adapted to the environment for 1 week, 7-week old mice were treated with the image-guided laser (Phoenix, USA) especially optic nerve area at 3, 6, 9, and 12 o'clock positions. The laser was irradiated at 532 nm, 100 ms/70 ms, 200 mW, and a spot size was 50 μm.
The mice were dark adapted for 24 hours before test and all tests were performed in a darkroom. The eyes of mice were dilated and general anesthetized by intraperitoneal injection with a mixture of ketamine (30 mg/kg) and xylazine hydrochloride (2.5 mg/kg) in order to detect the function of the retina. Electrodes were placed in skin, tail and cornea to run electroretinography. […] The amplitude from the trough of A-wave to the peak of B-wave was measured and evaluated as an index of the function of the retina. […]
FIG. 9A-FIG. 9F are the test results that measured the response degree of retina to the white light after dark adaptation of group with intravitreal injection at day 15 after laser injury.
The dose of each individual was calculated based on the body weight measured immediately prior to administration and then orally administered using a disposable syringe equipped with sonde. […]
FIG. 14A-FIG. 14E are the test results that measured the response degree of retina to the white light after dark adaptation of group with oral administration at day 14 after laser injury.

Data set [4] deals with laser-induced choroidal neovascularization (CNV). Nature of the data set: Fundus fluorescein angiography (FFA) in laser-induced CNV mouse model. It is filed as in vivo, C57 BL/6 mice. Particulars: intravitreal injection 2 μl per eyeball, 14 days after laser injury, vs PBS.
For data set [5] the test system is unchanged. Nature of the data set: Optical coherence tomography (OCT) in laser-induced CNV mouse model. To be noted: intravitreal injection, day 14 after laser injury, vs PBS. In kind it is in vivo, C57 BL/6 mice.
Data set [6] relates to vascular endothelial growth factor (VEGF). In words: Western blot analysis of VEGF expression in the choroid and the retina. It is filed as in vivo, C57 BL/6 mice. Particulars: intravitreal administration, day 15 after laser injury. A general note: Immunoblotting shows a protein as a band on a membrane.
The conditions of data set [7]: DMSO/PBS (pH 7.2) solution; cited from earlier work.
The test system of data set [8] is wet (age-related) macular degeneration. Particulars: in vivo; cited from earlier work.

“Also recorded” adds a separate entry of the source. Where two headings read alike, the source gives them in different places. A value given as a limit tells only on which side of the number the result lay.

In the case of `C[C@H](CCC(=O)O)[C@H]1CC[C@H]2[C@@H]3[C@@H](O)C[C@@H]4C[C@H](O)CC[C@]4(C)[C@H]3CC[C@]12C` [UDCA, ursodeoxycholic acid], the solubility in water in data set [1] is 20 µg/mL; in data set [1] (protonated form) it was 53 µM. In addition, in data set [2] (oral tablet or capsule, crystalline form), the “absorbed at the ileum of the colon by the active transport mechanism” value is given as “up to 20 % of intakes”. Besides, the “absorbed along the jejunum and ileum by nonionic passive diffusion” value in data set [2] (oral tablet or capsule) was 30-60%. Further, the “absorbed to the liver through the small intestine” value in data set [2] (taken orally) is given as at least 95%. The “acid dissociation constant, pKa” value in data set [3] is “about 5.0”; in [3] (listed as ursodeoxycholic acid), 5.1.
Take “Eylea®: conventional VEGF antibody drug, positive control, intravitreal injection”: the ERG response entry with function of the retina is recorded as “increased”. In addition, the “choroidal neovascularization (FFA, corrected total fluorescence)” value in data set [4] is given as “statistically significantly inhibited”. In addition, in [5], the “size of CNV lesions (OCT)” value is “statistically significantly inhibited”. Moreover, the “expression of VEGF in the choroid and the retina” value in [6] is “decreased; also recorded: less compared to that of YSB201”.
Take `C[C@H](CCC(=O)NCCS(=O)(=O)O)[C@H]1CC[C@H]2[C@@H]3[C@@H](O)C[C@@H]4C[C@H](O)CC[C@]4(C)[C@H]3CC[C@]12C` [tUDCA, tauroursodeoxycholic acid]: the solubility in water in data set [1] was 200 µg/mL. The solubility result in [1] (first dissolved in DMSO, then mixed with PBS (pH 7.2) 1:4) is “up to 200 mg/l”. In [3], the “pH (strong acidity)” value is reported as at most 1. For the same molecule, in data set [7], the “time the stability of the solution can be maintained” value is “about 1 day”.

B1: Lucentis®: antibody drug inhibiting the activity of VEGF, intravitreal injection once every four weeks (antibody, chains of the INN, looked up, V domains shown)
VH: EVQLVESGGGLVQPGGSLRLSCAASGYDFTHYGMNWVRQAPGKGLEWVGWINTYTGEPTYAADFKRRFTFSLDTSKSTAYLQMNSLRAEDTAVYYCAKYPYYYGTSHWYFDVWGQGTLVTVSS
VL: DIQLTQSPSSLSASVGDRVTITCSASQDISNYLNWYQQKPGKAPKVLIYFTSSLHSGVPSRFSGSGSGTDFTLTISSLQPEDFATYYCQQYSTVPWTFGQGTKVEIK
modifications: Fab
Regarding B1, in data set [8], the vision improvement rate is 40% and the vision maintenance effect is given as 90%.

These data come from patent US20210252022A1, “COMPOSITION FOR THE PREVENTION OR THE TREATMENT OF VISUAL IMPAIRMENTS COMPRISING URSODEOXYCHOLIC ACID” (AMICOGEN PHARMA INC., priority 2017, published 2021).
